Measured values published in ChEMBL document CHEMBL3632524, “3-(2,6-Dichloro-benzyloxy)-11-oxo-olean-12-ene-29-oic acid, a semisynthetic derivative of glycyrrhetic acid: synthesis, antiproliferative, apoptotic and anti-angiogenesis activity” (Medchemcomm, 2015).
Activity calls are given as the source filed them. No cut-off for these calls is given here.

Legend:
PC-3 [1] = assay: Antiproliferative activity against human PC3 cells assessed as cell viability after 48 hrs by MTT assay; assay type: functional, cell-based; settings: PC-3, 48 h
[2] = Antiproliferative activity against human MIAPaCa2 cells assessed as cell viability after 48 hrs by MTT assay; assay type: functional, cell-based; settings: MIA PaCa-2, 48 h
HepG2 = assay: Antiproliferative activity against human HepG2 cells assessed as cell viability after 48 hrs by MTT assay; assay type: functional, cell-based; settings: HepG2, 48 h
HL-60 = assay: Cytotoxicity against human HL60 cells; assay type: functional, cell-based
PC-3 [3] = assay: Induction of apoptosis in human PC3 cells assessed as translocation of Bax from cytosol to mitochondria at 5 to 20 uM after 24 hrs by western blot analysis; assay type: functional, cell-based
PC-3 [4] = assay: Induction of apoptosis in human PC3 cells assessed as decrease in Bcl2 to Bax ratio at 5 to 20 uM after 24 hrs by western blot analysis (reference value: 5); assay type: functional
PC-3 [5] = assay: Disruption of mitochondrial membrane potential in human PC3 cells at 20 uM after 24 hrs by rhodamine-123 based fluorescence assay (reference value: 5%); assay type: functional
PC-3 [6] = assay: Cell cycle arrest in human PC3 cells assessed as accumulation at G1 phase at 20 uM after 24 hrs by propidium iodide based flow cytometry (reference value: 50%); assay type: functional
PC-3 [7] = assay: Cell cycle arrest in human PC3 cells assessed as accumulation at sub G1 phase at 5 uM after 24 hrs by propidium iodide based flow cytometry (reference value: 3%); assay type: functional
PC-3 [8] = assay: Antiproliferative activity against human PC3 cells assessed as cell viability after 6 hrs by MTT assay; assay type: functional, cell-based; settings: PC-3, 6 h
PC-3 [9] = assay: Cell cycle arrest in human PC3 cells assessed as accumulation at S phase after 24 hrs by propidium iodide based flow cytometry; assay type: functional
PC-3 [10] = assay: Down regulation of procaspase-8 expression in human PC3 cells at 5 to 20 uM after 24 hrs by western blot analysis; assay type: functional, cell-based
PC-3 [11] = assay: Cell cycle arrest in human PC3 cells assessed as accumulation at S phase at 10 uM after 24 hrs by propidium iodide based flow cytometry (reference value: 30%); assay type: functional
MIA PaCa-2 = assay: Antiproliferative activity against human MIAPaCa2 cells assessed as cell viability by MTT assay; assay type: functional, cell-based; settings: TDE = time-dependent effect
PC-3 [12] = assay: Antiproliferative activity against human PC3 cells assessed as cell viability after 24 hrs by MTT assay; assay type: functional, cell-based; settings: PC-3, 24 h
PC-3 [13] = assay: Cell cycle arrest in human PC3 cells assessed as accumulation at S phase at 5 uM after 24 hrs by propidium iodide based flow cytometry (reference value: 30%); assay type: functional
PC-3 [14] = assay: Cell cycle arrest in human PC3 cells assessed as accumulation at sub G1 phase at 10 uM after 24 hrs by propidium iodide based flow cytometry (reference value: 3%); assay type: functional
PC-3 [15] = assay: Cell cycle arrest in human PC3 cells assessed as accumulation at G2 phase at 10 uM after 24 hrs by propidium iodide based flow cytometry (reference value: 20%); assay type: functional
PC-3 [16] = assay: Antiangiogenic activity in human PC3 cells assessed as VEGF-induced migration at 5 to 30 uM after 24 hrs by wound healing assay; assay type: functional, cell-based
PC-3 [17] = assay: Antiproliferative activity against human PC3 cells assessed as cell viability after 12 hrs by MTT assay; assay type: functional, cell-based; settings: PC-3, 12 h
PC-3 [18] = assay: Down regulation of Bcl-2 in human PC3 cells at 10 to 20 uM after 24 hrs by western blot analysis; assay type: functional, cell-based
HUVEC [19] = assay: Antiangiogenic activity in HUVEC assessed as VEGF-induced migration after 24 hrs by wound healing assay; assay type: functional, cell-based; settings: Homo sapiens
PC-3 [20] = assay: Cell cycle arrest in human PC3 cells assessed as accumulation at G2 phase at 5 uM after 24 hrs by propidium iodide based flow cytometry (reference value: 20%); assay type: functional
PC-3 [21] = assay: Cell cycle arrest in human PC3 cells assessed as accumulation at G1 phase at 10 uM after 24 hrs by propidium iodide based flow cytometry (reference value: 50%); assay type: functional
PC-3 [22] = assay: Cell cycle arrest in human PC3 cells assessed as accumulation at sub G1 phase after 24 hrs by propidium iodide based flow cytometry; assay type: functional
PC-3 [23] = assay: Induction of apoptosis in human PC3 cells assessed as membrane blebbing after 24 hrs by fluorescence microscopic analysis; assay type: functional, cell-based
PC-3 [24] = assay: Cell cycle arrest in human PC3 cells assessed as accumulation at sub G1 phase at 20 uM after 24 hrs by propidium iodide based flow cytometry (reference value: 3%); assay type: functional
PC-3 [25] = assay: Induction of apoptosis in human PC3 cells assessed as apoptotic bodies after 24 hrs by fluorescence microscopic analysis; assay type: functional, cell-based
PC-3 [26] = assay: Disruption of mitochondrial membrane potential in human PC3 cells at 10 uM after 24 hrs by rhodamine-123 based fluorescence assay (reference value: 5%); assay type: functional
PC-3 [27] = assay: Disruption of mitochondrial membrane potential in human PC3 cells at 5 uM after 24 hrs by rhodamine-123 based fluorescence assay (reference value: 5%); assay type: functional
[28] = Up regulation of PARP-1 expression in human PC3 cells at 5 to 20 uM after 24 hrs by western blot analysis; assay type: functional, cell-based; settings: PC-3
PC-3 [29] = assay: Cell cycle arrest in human PC3 cells assessed as accumulation at G1 phase at 5 uM after 24 hrs by propidium iodide based flow cytometry (reference value: 50%); assay type: functional
PC-3 [30] = assay: Cell cycle arrest in human PC3 cells assessed as accumulation at S phase at 20 uM after 24 hrs by propidium iodide based flow cytometry (reference value: 30%); assay type: functional
PC-3 [31] = assay: Induction of apoptosis in human PC3 cells assessed as nuclear condensation after 24 hrs by fluorescence microscopic analysis; assay type: functional, cell-based
HUVEC [32] = assay: Antiangiogenic activity in HUVEC assessed as wound closure level at 20 uM after 24 hrs by wound healing assay (reference value: 100%); assay type: functional, Homo sapiens
PC-3 [33] = assay: Cell cycle arrest in human PC3 cells assessed as accumulation at G2 phase at 20 uM after 24 hrs by propidium iodide based flow cytometry (reference value: 20%); assay type: functional
PC-3 [34] = assay: Antiproliferative activity against human PC3 cells assessed as cell viability after 18 hrs by MTT assay; assay type: functional, cell-based; settings: PC-3, 18 h

## COc1ccc(CO[C@H]2CC[C@]3(C)[C@H]4C(=O)C=C5[C@@H]6C[C@@](C)(C(=O)O)CC[C@]6(C)CC[C@@]5(C)[C@]4(C)CC[C@H]3C2(C)C)cc1Br
PC-3 [1]
  IC50: > 20 µM
[2]
  IC50: > 20 µM
HepG2
  IC50: > 20 µM

## CC1(C)[C@@H](OCc2ccc(F)cc2)CC[C@]2(C)[C@H]3C(=O)C=C4[C@@H]5C[C@@](C)(C(=O)O)CC[C@]5(C)CC[C@@]4(C)[C@]3(C)CC[C@@H]12
PC-3 [1]
  IC50: 9 µM
[2]
  IC50: 12 µM
HepG2
  IC50: > 100 µM

## CC1(C)[C@@H](OCc2c(F)cccc2Cl)CC[C@]2(C)[C@H]3C(=O)C=C4[C@@H]5C[C@@](C)(C(=O)O)CC[C@]5(C)CC[C@@]4(C)[C@]3(C)CC[C@@H]12
PC-3 [1]
  IC50: 10 µM
[2]
  IC50: 11 µM
HepG2
  IC50: > 100 µM

## CC1(C)[C@@H](OCc2ccc(C(F)(F)F)cc2C(F)(F)F)CC[C@]2(C)[C@H]3C(=O)C=C4[C@@H]5C[C@@](C)(C(=O)O)CC[C@]5(C)CC[C@@]4(C)[C@]3(C)CC[C@@H]12
PC-3 [1]
  IC50: > 20 µM
[2]
  IC50: > 20 µM
HepG2
  IC50: > 20 µM

## CC1(C)[C@@H](OCc2cccc(Cl)c2)CC[C@]2(C)[C@H]3C(=O)C=C4[C@@H]5C[C@@](C)(C(=O)O)CC[C@]5(C)CC[C@@]4(C)[C@]3(C)CC[C@@H]12
PC-3 [1]
  IC50: > 20 µM
[2]
  IC50: > 20 µM
HepG2
  IC50: > 20 µM

## CC1(C)[C@@H](OCc2ccccc2[N+](=O)[O-])CC[C@]2(C)[C@H]3C(=O)C=C4[C@@H]5C[C@@](C)(C(=O)O)CC[C@]5(C)CC[C@@]4(C)[C@]3(C)CC[C@@H]12
PC-3 [1]
  IC50: > 20 µM
[2]
  IC50: > 20 µM
HepG2
  IC50: > 20 µM

## CC1(C)[C@@H](OCc2ccc(Cl)cc2)CC[C@]2(C)[C@H]3C(=O)C=C4[C@@H]5C[C@@](C)(C(=O)O)CC[C@]5(C)CC[C@@]4(C)[C@]3(C)CC[C@@H]12
PC-3 [1]
  IC50: > 20 µM
[2]
  IC50: > 20 µM
HepG2
  IC50: > 20 µM

## CC1(C)[C@@H](O)CC[C@]2(C)[C@H]3C(=O)C=C4[C@@H]5C[C@@](C)(C(=O)O)CC[C@]5(C)CC[C@@]4(C)[C@]3(C)CC[C@@H]12 [ENOXOLONE]
PC-3 [1]
  IC50: > 20 µM
[2]
  IC50: > 20 µM
HepG2
  IC50: > 20 µM
HL-60
  IC50: 63.2 µM

## CC1(C)[C@@H](OCc2c(Cl)cccc2Cl)CC[C@]2(C)[C@H]3C(=O)C=C4[C@@H]5C[C@@](C)(C(=O)O)CC[C@]5(C)CC[C@@]4(C)[C@]3(C)CC[C@@H]12
PC-3 [3]
  Activity: Active
PC-3 [4]
  Ratio: 0.5
PC-3 [5]
  Activity: 38%
PC-3 [1]
  IC50: 6 µM
PC-3 [6]
  Activity: 44%
[2]
  IC50: 7 µM
PC-3 [7]
  Activity: 8%
PC-3 [8]
  IC50: 400 µM
PC-3 [9]
  Activity: Dose-dependent effect
PC-3 [10]
  Activity: Active
PC-3 [11]
  Activity: 42%
MIA PaCa-2
  Activity: tde
PC-3 [12]
  IC50: 15 µM
HepG2
  IC50: 19 µM
PC-3 [13]
  Activity: 40%
PC-3 [14]
  Activity: 12%
PC-3 [15]
  Activity: 7%
PC-3 [16]
  Activity: Dose-dependent effect
PC-3 [17]
  IC50: 370 µM
PC-3 [18]
  Activity: Active
HUVEC [19]
  Activity: Active
PC-3 [20]
  Activity: 1%
PC-3 [21]
  Activity: 51%
PC-3 [22]
  Activity: Dose-dependent effect
PC-3 [23]
  Activity: Dose-dependent effect
PC-3 [24]
  Activity: 37%
PC-3 [25]
  Activity: Dose-dependent effect
PC-3 [26]
  Activity: 15%
PC-3 [27]
  Activity: 12%
[28]
  Activity: Active
PC-3 [29]
  Activity: 59%
PC-3 [30]
  Activity: 53%
PC-3 [31]
  Activity: Dose-dependent effect
HUVEC [32]
  Activity: 20%
PC-3 [33]
  Activity: 4%
PC-3 [34]
  IC50: 100 µM

## COc1ccc(CO[C@H]2CC[C@]3(C)[C@H]4C(=O)C=C5[C@@H]6C[C@@](C)(C(=O)O)CC[C@]6(C)CC[C@@]5(C)[C@]4(C)CC[C@H]3C2(C)C)cc1OC
PC-3 [1]
  IC50: > 20 µM
[2]
  IC50: > 20 µM
HepG2
  IC50: > 20 µM
